Assay results taken from US20100092456A1, “METHODS OF TREATMENT” (priority 2006, published 2010).

Key:
[1] = test system: ING2; test: Western blot of endogenous ING2 associated with the CEF of MEL cells; format: cell-based, Murine; details: differentiated MEL cells; H2O2 500 μM, 15 minutes
Procedure: FIG. 4. A) Exponentially growing MEL cells were irradiated with either 200 J/m of UV light or 10 Gy of gamma radiation. After 30 minutes the CEF was isolated and the subjected to SDS-PAGE followed by transfer of the separated proteins to a nitrocellulose membrane. Western blotting for endogenous ING2 and histone 4 proteins was performed. Representative western blots are shown. B) Exponentially growing MEL cells were incubated in the absence or presence of N-acetyl cysteine (NAC) (5 mM) for 4 hours prior to a control irradiation or exposed to 200 J/m of UV light before the isolation of the CEF. Differentiated MEL cells were incubated in the absence or presence of H2O2 (500 μM) for 15 minutes prior to the isolation of the CEF. Proteins in the CEF were subjected to SDS-PAGE followed by transfer to a nitrocellulose membrane. Western blotting for endogenous ING2 and histone 4 proteins was performed. Representative western blots are shown. C) MEL cells were preincubated with either vehicle, wortmannin (200 nM and 5 μM) or curcumin (100 μM) were irradiated with 200 J/m of UV light. After 30 minutes the CEF was isolated and proteins were subjected to SDS-PAGE followed by transfer to a nitrocellulose membrane. Western blotting for endogenous ING2 and histone 4 proteins was performed. Representative western blots are shown. D) The CEF from transiently transfected MEL cells with either pSuper or pSuper-IIβRNAi was prepared. Proteins in the CEF were subjected to SDS-PAGE followed by transfer to a nitrocellulose membrane. […] Proteins were analysed by standard western blotting procedures employing the following antibodies: anti-tubulin and anti-flag (both from Sigma), anti-actin (Chemicon International), anti-histone 4 (Upstate Biotechnology), anti-phospho p54, anti-phospho p46, anti-phospho p38, total p54, total p46 and total p38 (all from Cell Signalling Technology) anti-ING2, anti EGFP (Clontech), anti-type II β PIP kinase, anti-GST and anti-myc (both generated in house).

[2] = target: T1, PIP 5-K (Mus musculus, UniProt P70181); test: In vitro activity of recombinant PIP 5-K (radioactive ATP, TLC); format: biochemical; details: apoptotic concentrations of H2O2; Cysteine 175 to serine mutant is not sensitive
T1 construct: expressed in transfected cells; host or cells: HeLa cells
T1 sequence (P70181 whole entry): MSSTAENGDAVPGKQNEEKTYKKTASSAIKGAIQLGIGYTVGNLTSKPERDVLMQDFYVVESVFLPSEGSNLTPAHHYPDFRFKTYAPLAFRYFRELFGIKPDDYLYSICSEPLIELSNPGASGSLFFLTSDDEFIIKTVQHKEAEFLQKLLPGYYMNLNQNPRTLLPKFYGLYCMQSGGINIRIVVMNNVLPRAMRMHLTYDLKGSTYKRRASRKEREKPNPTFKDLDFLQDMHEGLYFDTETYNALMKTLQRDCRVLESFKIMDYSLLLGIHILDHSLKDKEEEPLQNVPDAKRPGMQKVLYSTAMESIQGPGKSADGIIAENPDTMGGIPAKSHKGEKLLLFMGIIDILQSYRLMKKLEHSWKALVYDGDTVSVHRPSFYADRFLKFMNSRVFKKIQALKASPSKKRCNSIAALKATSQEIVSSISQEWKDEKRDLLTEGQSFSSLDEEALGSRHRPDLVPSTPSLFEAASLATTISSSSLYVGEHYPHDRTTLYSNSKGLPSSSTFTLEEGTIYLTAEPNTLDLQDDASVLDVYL
Procedure: (§1) Panel B: Recombinant wild type PIP 5-K and a point mutation of PIP 5-K—(cysteine 175 altered to a serine residue) were both treated with H2O2 and enzyme activity was assayed in vitro by measuring the amount of product that is produced after incubation with substrate and radioactive ATP. The products were then analysed on TLC plate using phosphoimager.
as §1, with “Recombinant” for “Panel B: Recombinant”, “5-K-(cysteine” for “5-K—(cysteine”, “phosphoimager. […] (FIG. 12, panel B).” for “phosphoimager.”

activity of recombinant wild type PIP 5-K after treatment [2]: sensitive
Structure (SMILES): OO [H2O2]
ING2 translocation to the CEF [1]: stimulated
